In assay [1] the target is human histamine receptor type 4 (Homo sapiens, UniProt Q9H3N8). As to the kind of experiment: In vitro histamine receptor cell-based assay, H4R antagonist (aequorin bioluminescence). The settings on record: CHO-K1 cells expressing human H4 receptor, aequorin and Gα16; histamine at EC80. The text has this: (§1) In Vitro Histamine Receptor Cell-Based Assays
(§2) The assays are based on an aequorin dependent bioluminescence signal, generated by receptor signaling through Gq/11 or a similarly acting G protein and a resulting transient calcium flux. Doubly-transfected, stable CHO-K1 cell lines expressing human histamine receptor type 1 or type 4, mitochondrion-targeted aequorin, and (histamine type 4 receptor only) human G protein Gα16 are obtained from Perkin-Elmer (Histamine H1 cell line, catalog ES-390-A; Histamine H4 cell line, catalog ES-393-A). Cells are maintained on conventional culture plasticware in F12 (Ham's) growth medium containing 10% (vol./vol.) fetal bovine serum, penicillin (100 IU/ml), streptomycin (0.1 mg/ml), zeocin (0.25 mg/ml) and geneticin (0.40 mg/ml), as per the manufacturer's instructions (all components from Invitrogen, Inc.). One day prior to assay, the growth medium is replaced with the same, excluding zeocin and geneticin.
(§3) To prepare cells for a histamine receptor assay, growth medium is aspirated, and the cells are rinsed with calcium-free, magnesium-free phosphate-buffered saline. The rinse is aspirated and replaced with Versene (Invitrogen, Inc.) and the cells incubated for two to three minutes at 37° C., followed by tapping the plate to fully dislodge cells. Assay medium (DMEM:F12 [50:50], phenol-red free, containing 1 mg/ml protease-free bovine serum albumin) is added to collect the cells, which are then transferred to a conical tube for centrifugation. The cell pellet is re-suspended in assay medium, and the cell density is determined by counting with a hemacytometer. The cells are then centrifuged again and re-suspended in assay medium to a final density of 5×10^6 cells/ml. Coelenterazine-h dye (500 μM in ethanol) is then added to a final concentration of 5 μM, and mixed immediately. The conical tube containing the cells is then wrapped with foil to protect the light sensitive dye. The cells are incubated for four hours further at normal room temperature (approximately 21° C.) with vertical rotation to keep them in suspension.
(§4) Just before assay, the dye-loaded cells are diluted to 0.75×10^6 cells/ml (H1 receptor) or 1.5×10^6 cells/ml (H4 receptor) with additional assay medium. Cells are dispensed to 1536 well microtiter plates at 3 μl/well. To assay receptor antagonist activity, […] of 100× concentration test compounds in dimethyl sulfoxide (DMSO) are dispensed to the wells, one compound per well, by passive pin transfer, and the plates are incubated for 15 minutes at room temperature. Assay plates are then transferred to a Lumilux (Perkin-Elmer) bioluminescence plate reader equipped with an automated 1536 well disposable tip pipette. The pipette then dispenses 3 μl/well of agonist (histamine, at twice the final concentration, where final concentration is a previously determined EC80 for response), with concurrent bioluminescence detection.
(§5) CCD imaging capture on the Lumilux instrument includes a 5 second baseline read prior to agonist addition, generally with a 40 second complete read per plate. A decrease in bioluminescence signal (measured either as area-under-the-curve, or maximum signal amplitude minus minimum signal amplitude) correlates with receptor antagonism. Negative control activity is measured with DMSO lacking any test compound. For receptor antagonist assays, positive control activity is measured with diphenhydramine (2-Diphenylmethoxy-N,N-dimethylethylamine, 10 μM final concentration, H1 receptor) or JNJ7777120 (1-[(5-Chloro-1H-indol-2-yl)carbonyl]-4-methyl-piperazine, 10 μM final concentration, H4 receptor). For receptor agonist assays, positive activity is measured with histamine (10 μM final concentration). Efficacy is measured as a percentage of positive control activity.

Assay [2] concerns the target human histamine receptor type 1 (Homo sapiens, UniProt P35367). As to the kind of experiment: In vitro histamine receptor cell-based assay, H1R antagonist (aequorin bioluminescence). The settings on record: CHO-K1 cells expressing human H1 receptor and aequorin; histamine at EC80.
Source text: as §1, §2, §3, §4, §5

Sequence of human histamine receptor type 4 (Q9H3N8 whole entry): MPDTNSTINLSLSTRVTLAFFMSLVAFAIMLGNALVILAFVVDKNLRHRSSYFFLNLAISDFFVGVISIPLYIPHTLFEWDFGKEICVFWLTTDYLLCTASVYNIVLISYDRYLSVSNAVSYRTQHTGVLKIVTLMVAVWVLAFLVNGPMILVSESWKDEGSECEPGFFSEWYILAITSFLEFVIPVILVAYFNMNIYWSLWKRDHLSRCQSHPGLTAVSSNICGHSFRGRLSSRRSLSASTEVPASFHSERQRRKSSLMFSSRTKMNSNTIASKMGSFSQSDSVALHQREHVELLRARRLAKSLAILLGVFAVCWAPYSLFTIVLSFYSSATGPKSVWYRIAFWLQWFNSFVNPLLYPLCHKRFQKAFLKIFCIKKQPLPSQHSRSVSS
Sequence of human histamine receptor type 1 (P35367 whole entry): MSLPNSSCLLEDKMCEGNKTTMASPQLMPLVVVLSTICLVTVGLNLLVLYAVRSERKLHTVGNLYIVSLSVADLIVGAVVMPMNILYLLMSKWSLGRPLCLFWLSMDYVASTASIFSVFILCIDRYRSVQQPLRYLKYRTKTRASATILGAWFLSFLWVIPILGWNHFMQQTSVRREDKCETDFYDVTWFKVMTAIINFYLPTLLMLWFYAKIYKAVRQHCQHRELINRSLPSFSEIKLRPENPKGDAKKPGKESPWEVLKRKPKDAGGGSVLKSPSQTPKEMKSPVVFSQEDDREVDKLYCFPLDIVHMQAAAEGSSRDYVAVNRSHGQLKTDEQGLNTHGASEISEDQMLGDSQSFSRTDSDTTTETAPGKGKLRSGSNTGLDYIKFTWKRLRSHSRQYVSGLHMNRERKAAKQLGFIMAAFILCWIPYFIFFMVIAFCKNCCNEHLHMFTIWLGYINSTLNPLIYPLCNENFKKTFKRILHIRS

As for `CCn1c2ccccc2c2c(CN3CCCC(c4ccn[nH]4)C3)cccc21` (centres unmarked) [Example 31, 4-((3-(1H-pyrazol-5-yl)piperidin-1-yl)methyl)-9-ethyl-9H-carbazole], the values for the IC50 in assay [1] and in assay [2] were 18.4 µM and 14.8 µM, respectively.
For `CCn1c2ccccc2c2cc(CN3CCCC(C(N)=O)C3)ccc21` (centres unmarked) [Example 10, 1-((9-Ethyl-9H-carbazol-3-yl)methyl)piperidine-3-carboxamide], in that order: 0.18 µM and 0.68 µM.
The matching figures for `CN(C)CCCn1c2ccccc2c2cc(CN3CCCC(N)C3)ccc21` (centres unmarked) [Example 28, 1-((9-(3-(dimethylamino)propyl)-9H-carbazol-3-yl)methyl)piperidin-3-amine]: 55.9 µM and greater than 30 µM.
As to `CN(C)CCCn1c2ccccc2c2cc(CN3CCCC(C(N)=O)C3)ccc21` (centres unmarked) [Example 27, 1-((9-(3-(dimethylamino)propyl)-9H-carbazol-3-yl)methyl)piperidine-3-carboxamide], the IC50 in assay [1] and in assay [2] was greater than 30 µM throughout.
For `CCn1c2ccccc2c2cc(CN3CCCC(C#N)C3)ccc21` (centres unmarked) [Example 13, 1-((9-Ethyl-9H-carbazol-3-yl)methyl)piperidine-3-carbonitrile], the values for the half-inhibitory concentration (IC50) in assay [1] and in assay [2] were 1.03 µM and 2.56 µM, respectively.
For `CCn1c2ccccc2c2cc(CN3CCCC3)ccc21` [Example 8, 9-Ethyl-3-(pyrrolidin-1-ylmethyl)-9H-carbazole], in that order: 8.5 µM and 7.55 µM.
For `CCn1c2ccccc2c2cccc(CN3CCN(C)CC3)c21` [Example 33, 9-ethyl-1-((4-methylpiperazin-1-yl)methyl)-9H-carbazole], in that order: 9.64 µM and 19 µM.
Take `CCn1c2ccccc2c2ccc(CN3CCN(C)CC3)cc21` [Example 34, 9-ethyl-2-((4-methylpiperazin-1-yl)methyl)-9H-carbazole]: the concentration for half-maximal inhibition (IC50) (usually the concentration that inhibits the measured activity by half) in assay [1] came to 8.55 µM; in assay [2], 35.4 µM.
For `CCn1c2ccccc2c2cc(CN3CCC(C)CC3)ccc21` [Example 5, 9-Ethyl-3-((4-methylpiperidin-1-yl)methyl)-9H-carbazole], in that order: 8.09 µM and 5.94 µM.
The matching figures for `c1ccc2c(c1)[nH]c1ccc(CN3CCCC(c4ccn[nH]4)C3)cc12` (centres unmarked) [Example 15, 3-((3-(1H-pyrazol-5-yl)piperidin-1-yl)methyl)-9H-carbazole]: 52.6 µM and 37.6 µM.
As for `CCn1c2ccccc2c2cc(CN3CCCC(c4cnn[nH]4)C3)ccc21` (centres unmarked) [Example 23, 3-((3-(1H-1,2,3-triazol-5-yl)piperidin-1-yl)methyl)-9-ethyl-9H-carbazole], the IC50 in assay [1] is 0.96 µM; in assay [2], 0.09 µM.
For `CCOC(=O)C1CCCN(Cc2ccc3c(c2)c2ccccc2n3CC)C1` (centres unmarked) [Example 7, Ethyl 1-((9-ethyl-9H-carbazol-3-yl)methyl)piperidine-3-carboxylate], in that order: 3.83 µM and 5.57 µM.
The matching figures for `CCn1c2ccccc2c2cc(CN3CCCC(c4nnc[nH]4)C3)ccc21` (centres unmarked) [Example 19, 3-((3-(4H-1,2,4-Triazol-3-yl)piperidin-1-yl)methyl)-9-ethyl-9H-carbazole]: 0.99 µM and 0.59 µM.
For `CCn1c2ccccc2c2cc(CN3CCCC(c4ncc[nH]4)C3)ccc21` (centres unmarked) [Example 17, 3-((3-(1H-imidazol-2-yl)piperidin-1-yl)methyl)-9-ethyl-9H-carbazole], in that order: 2.28 µM and 0.53 µM.
For the molecule `CCn1c2ccccc2c2cc(CN3CCOCC3)ccc21` [Example 2, 4-((9-Ethyl-9H-carbazol-3-yl)methyl)morpholine], the 50% inhibitory concentration (IC50) in assay [1] amounted to 2.23 µM; in assay [2], 11.1 µM.
For `CCn1c2ccccc2c2cc(CN3CC(C)CC(C)C3)ccc21` (centres unmarked) [Example 4, 3-((3,5-Dimethylpiperidin-1-yl)methyl)-9-ethyl-9H-carbazole], in that order: 9.62 µM and 18.2 µM.

For the origin of these results see US8080566B1, “Carbazole inhibitors of histamine receptors for the treatment of disease” (Kalypsys, Inc, priority 2008, dated 2011).
